From patent US20260137703A1, “2-AMINO-PYRIDO[2,3-D]PYRIMIDIN-7(8H)-ONE AND 7-AMINO-1-PYRIMIDO[4,5-D]PYRIMIDIN-2(1 H)-ONE DERIVATIVES AS EGFR INHIBITORS FOR THE TREATMENT OF CANCER” (Cancer Research Technology Limited, priority 2022, published 2026)

Assays:
[1] = biological target: T1, Phospho-EGFR (Tyr1068) in H1975 cells (Homo sapiens, UniProt P00533, L858R/T790M); test: HTRF pEGFR/total EGFR in H1975 cells; assay type: cell-based; conditions: ratio pEGFR/total EGFR, compound 3 hours
T1 construct: host or cells: H1975
T1 sequence (P00533 25-1210 T790M/L858R): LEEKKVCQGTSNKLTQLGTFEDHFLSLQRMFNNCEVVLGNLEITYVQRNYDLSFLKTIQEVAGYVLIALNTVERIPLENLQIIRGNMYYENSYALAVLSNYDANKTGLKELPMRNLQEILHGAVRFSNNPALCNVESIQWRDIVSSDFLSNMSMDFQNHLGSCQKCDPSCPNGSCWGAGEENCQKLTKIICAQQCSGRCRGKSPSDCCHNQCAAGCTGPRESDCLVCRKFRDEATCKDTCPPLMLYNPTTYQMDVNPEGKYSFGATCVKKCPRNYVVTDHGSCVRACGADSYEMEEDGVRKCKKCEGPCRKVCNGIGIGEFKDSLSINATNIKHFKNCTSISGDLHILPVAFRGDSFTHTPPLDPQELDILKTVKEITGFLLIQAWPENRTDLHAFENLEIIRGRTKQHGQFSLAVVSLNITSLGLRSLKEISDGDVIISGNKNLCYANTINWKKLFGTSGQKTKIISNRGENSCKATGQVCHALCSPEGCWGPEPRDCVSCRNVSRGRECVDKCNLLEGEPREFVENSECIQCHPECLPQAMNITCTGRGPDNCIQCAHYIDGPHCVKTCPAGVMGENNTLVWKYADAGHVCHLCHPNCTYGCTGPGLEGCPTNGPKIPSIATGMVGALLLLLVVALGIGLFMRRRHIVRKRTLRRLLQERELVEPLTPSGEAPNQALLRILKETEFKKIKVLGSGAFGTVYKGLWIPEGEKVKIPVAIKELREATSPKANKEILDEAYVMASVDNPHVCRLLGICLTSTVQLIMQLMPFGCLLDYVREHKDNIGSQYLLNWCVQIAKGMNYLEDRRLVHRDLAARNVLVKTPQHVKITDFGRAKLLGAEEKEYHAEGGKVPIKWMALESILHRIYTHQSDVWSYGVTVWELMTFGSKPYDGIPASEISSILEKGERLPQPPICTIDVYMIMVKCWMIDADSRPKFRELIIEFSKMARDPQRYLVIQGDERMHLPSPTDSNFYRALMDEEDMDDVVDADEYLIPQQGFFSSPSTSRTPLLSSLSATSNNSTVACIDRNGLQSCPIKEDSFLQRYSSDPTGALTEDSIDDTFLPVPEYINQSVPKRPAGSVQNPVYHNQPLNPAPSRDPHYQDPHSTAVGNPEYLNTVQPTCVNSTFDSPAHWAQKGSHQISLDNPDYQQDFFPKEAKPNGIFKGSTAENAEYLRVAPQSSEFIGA
Experimental: (§1) H1975 cells (ATCC CRL-5908) were plated at 20,000 cells per well in 96 well plates and placed at 37° C. 5% CO2. Once adhered (after 24 h) cells were treated with compounds dissolved in DMSO at a final concentration of 0.1% DMSO in media. Compounds were diluted in media then added to cells for 3 hours in duplicate. Compound and media were removed from the cells, then 50 ul of HTRF lysis buffer is added (lysis buffer was diluted from 4× stock to 1× in DI water, with 1% blocking agent also added). Cells were lysed on a plate shaker (2000 rpm) for 30 minutes at room temperature. pEGFR expression was monitored using the Cisbio Phospho-EGFR (Tyri068) cellular kit (64EG1PEH). Total EGFR expression was monitored using the Cisbio Total EGFR cellular kit (64NG1PEH) as per manufacturer's instructions. Fluorescence emission was read at two different wavelengths (665 nm and 620 nm) on a PheraStar. Results were calculated as ratio of pEGFR/total EGFR and then percentage of 0 μM control.

[2] = biological target: T2, Phospho-EGFR (Tyr1068) in H1975 C797S cells (CRISPR-edited EGFR C797S) (Homo sapiens, UniProt P00533, C797S/L858R/T790M); test: HTRF pEGFR/total EGFR in H1975 C797S cells; assay type: cell-based; conditions: ratio pEGFR/total EGFR, compound 3 hours
T2 construct: host or cells: H1975 C797S (CRISPR-edited)
T2 sequence (P00533 25-1210 T790M/C797S/L858R): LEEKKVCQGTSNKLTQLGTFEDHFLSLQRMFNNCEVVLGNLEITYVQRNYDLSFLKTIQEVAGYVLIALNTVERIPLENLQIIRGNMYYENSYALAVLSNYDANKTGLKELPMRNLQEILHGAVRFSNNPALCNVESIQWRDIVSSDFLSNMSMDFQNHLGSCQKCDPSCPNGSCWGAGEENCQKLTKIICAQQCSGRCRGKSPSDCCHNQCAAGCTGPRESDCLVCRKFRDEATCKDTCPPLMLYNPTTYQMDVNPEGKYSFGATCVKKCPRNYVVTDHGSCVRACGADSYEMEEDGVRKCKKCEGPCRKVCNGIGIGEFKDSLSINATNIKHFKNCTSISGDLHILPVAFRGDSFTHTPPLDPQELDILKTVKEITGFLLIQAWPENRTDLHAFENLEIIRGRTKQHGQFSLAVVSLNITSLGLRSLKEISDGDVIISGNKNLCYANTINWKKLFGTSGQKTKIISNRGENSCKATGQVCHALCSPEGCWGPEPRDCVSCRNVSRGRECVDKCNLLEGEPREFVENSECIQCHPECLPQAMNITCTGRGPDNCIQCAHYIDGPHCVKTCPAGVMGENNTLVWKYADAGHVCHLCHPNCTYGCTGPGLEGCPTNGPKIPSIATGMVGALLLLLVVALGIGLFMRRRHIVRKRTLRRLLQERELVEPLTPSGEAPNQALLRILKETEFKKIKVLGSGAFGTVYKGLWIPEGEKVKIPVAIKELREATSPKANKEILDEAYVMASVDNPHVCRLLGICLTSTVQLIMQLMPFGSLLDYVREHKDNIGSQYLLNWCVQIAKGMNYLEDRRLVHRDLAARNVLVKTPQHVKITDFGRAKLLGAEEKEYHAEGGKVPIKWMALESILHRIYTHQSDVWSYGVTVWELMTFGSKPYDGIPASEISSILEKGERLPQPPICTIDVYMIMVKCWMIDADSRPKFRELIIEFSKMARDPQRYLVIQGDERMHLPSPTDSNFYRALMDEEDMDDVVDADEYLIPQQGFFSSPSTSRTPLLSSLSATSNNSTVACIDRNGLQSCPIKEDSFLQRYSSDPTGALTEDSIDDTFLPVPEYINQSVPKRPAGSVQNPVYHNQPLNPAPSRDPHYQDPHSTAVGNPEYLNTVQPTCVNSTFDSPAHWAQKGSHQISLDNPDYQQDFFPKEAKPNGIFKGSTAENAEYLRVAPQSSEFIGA
Experimental: as §1, with “[…]. Once” for “H1975 cells (ATCC CRL-5908) were plated at 20,000 cells per well in 96 well plates and placed at 37° C. 5% CO2. Once”, “buffer was” for “buffer is”, “Phospho-EGFR (Tyr1068)” for “Phospho-EGFR (Tyri068)”

[3] = biological target: T3, Phospho-EGFR (Tyr1068) in A431 cells (Homo sapiens, UniProt P00533); test: HTRF pEGFR/total EGFR in A431 cells with EGF stimulation; assay type: cell-based; conditions: ratio pEGFR/total EGFR, compound 2.5 hours then 100 ng/ml EGF 30 mins
T3 construct: endogenous in cells; host or cells: A431
T3 sequence (P00533 25-1210): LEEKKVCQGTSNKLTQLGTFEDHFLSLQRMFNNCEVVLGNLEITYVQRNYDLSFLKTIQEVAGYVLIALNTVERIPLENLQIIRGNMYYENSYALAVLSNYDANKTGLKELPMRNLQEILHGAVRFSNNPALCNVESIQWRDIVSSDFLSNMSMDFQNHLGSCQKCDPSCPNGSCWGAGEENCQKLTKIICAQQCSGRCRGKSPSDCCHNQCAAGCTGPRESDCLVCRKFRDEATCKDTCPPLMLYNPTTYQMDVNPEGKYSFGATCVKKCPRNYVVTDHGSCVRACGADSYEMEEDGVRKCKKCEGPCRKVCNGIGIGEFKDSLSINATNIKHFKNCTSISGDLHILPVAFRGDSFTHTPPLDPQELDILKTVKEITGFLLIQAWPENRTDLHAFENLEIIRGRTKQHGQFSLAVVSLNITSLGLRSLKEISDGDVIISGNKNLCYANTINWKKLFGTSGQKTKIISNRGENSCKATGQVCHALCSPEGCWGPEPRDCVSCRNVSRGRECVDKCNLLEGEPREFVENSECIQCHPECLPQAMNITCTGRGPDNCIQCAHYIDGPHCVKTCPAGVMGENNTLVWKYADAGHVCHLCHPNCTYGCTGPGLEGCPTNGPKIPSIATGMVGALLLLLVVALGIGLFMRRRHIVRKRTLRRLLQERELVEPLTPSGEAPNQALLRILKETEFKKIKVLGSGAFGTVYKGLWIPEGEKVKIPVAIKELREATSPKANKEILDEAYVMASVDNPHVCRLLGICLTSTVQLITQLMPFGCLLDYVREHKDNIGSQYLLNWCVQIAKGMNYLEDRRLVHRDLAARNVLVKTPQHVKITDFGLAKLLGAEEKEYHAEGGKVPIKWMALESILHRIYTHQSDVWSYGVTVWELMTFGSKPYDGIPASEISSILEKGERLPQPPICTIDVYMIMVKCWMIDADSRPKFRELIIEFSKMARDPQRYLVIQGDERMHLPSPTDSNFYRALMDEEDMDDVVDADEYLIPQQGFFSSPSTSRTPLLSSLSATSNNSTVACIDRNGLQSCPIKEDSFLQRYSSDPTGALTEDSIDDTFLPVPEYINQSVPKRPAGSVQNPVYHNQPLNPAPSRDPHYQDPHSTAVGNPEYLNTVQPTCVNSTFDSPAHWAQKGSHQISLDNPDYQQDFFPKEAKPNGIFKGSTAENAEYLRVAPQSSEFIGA
Experimental: Cells were plated at 20,000 cells per well in 96 well plates and placed at 37° C. 5% CO2. Once adhered (after 24 h) cells were treated with compounds dissolved in DMSO at a final concentration of 0.1% DMSO in media. Compounds were diluted in media then added to cells for 2.5 hours in duplicate, 100 ng/ml EGF (ThermoFisher, PHG0311) was added to all compound treated cells as well as a control for 30 mins. Compound and media were removed from the cells, then 50 ul of HTRF lysis buffer was added (lysis buffer was diluted from 4× stock to 1× in DI water, with 1% blocking agent also added). Cells were lysed on a plate shaker (2000 rpm) for 30 minutes at room temperature. pEGFR expression was monitored using the Cisbio Phospho-EGFR (Tyr1068) cellular kit (64EG1PEH). Total EGFR expression was monitored using the Cisbio Total EGFR cellular kit (64NG1PEH) as per manufacturer's instructions. Fluorescence emission was read at two different wavelengths (665 nm and 620 nm) on a PheraStar. Results were calculated as ratio of pEGFR/total EGFR and then percentage of 0 μM control.

[4] = biological target: CtermHisTag-mEGFR Wild type (Homo sapiens, UniProt P00533); test: biochemical
CtermHisTag-mEGFR Wild type, sequence (P00533 whole entry): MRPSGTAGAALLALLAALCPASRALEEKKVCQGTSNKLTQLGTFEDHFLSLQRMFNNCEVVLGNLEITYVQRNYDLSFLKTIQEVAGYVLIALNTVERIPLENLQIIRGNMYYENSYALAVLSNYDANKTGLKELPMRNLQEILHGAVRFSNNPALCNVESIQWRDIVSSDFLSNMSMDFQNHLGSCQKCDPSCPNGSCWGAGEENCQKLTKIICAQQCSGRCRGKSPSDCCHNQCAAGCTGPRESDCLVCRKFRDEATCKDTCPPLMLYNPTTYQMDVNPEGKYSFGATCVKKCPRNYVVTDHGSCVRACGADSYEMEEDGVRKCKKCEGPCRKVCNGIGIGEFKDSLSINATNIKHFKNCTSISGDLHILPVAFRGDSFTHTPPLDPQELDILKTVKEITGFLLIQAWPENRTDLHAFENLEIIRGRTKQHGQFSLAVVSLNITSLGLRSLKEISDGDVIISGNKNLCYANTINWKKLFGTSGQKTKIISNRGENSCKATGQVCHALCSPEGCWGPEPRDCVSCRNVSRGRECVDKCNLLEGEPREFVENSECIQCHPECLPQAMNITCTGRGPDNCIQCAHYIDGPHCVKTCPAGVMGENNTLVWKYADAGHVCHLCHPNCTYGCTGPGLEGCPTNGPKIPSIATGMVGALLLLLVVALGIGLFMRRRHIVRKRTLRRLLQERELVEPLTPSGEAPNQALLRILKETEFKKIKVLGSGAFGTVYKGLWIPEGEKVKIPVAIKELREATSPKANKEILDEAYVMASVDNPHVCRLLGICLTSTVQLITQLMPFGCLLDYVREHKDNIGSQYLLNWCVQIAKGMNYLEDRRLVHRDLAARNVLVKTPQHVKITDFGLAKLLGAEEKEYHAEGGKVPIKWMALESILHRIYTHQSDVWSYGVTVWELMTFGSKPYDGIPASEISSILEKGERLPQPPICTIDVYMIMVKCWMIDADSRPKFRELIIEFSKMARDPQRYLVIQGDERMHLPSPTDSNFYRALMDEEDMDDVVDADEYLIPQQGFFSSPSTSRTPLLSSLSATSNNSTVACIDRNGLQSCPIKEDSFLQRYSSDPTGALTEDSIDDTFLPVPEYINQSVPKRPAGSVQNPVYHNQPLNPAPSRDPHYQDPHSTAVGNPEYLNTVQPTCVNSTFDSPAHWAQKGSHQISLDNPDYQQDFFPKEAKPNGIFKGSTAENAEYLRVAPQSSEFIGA

| Compound | IC50 [1] | IC50 [2] | IC50 [3] | IC50 [4] |
| --- | --- | --- | --- | --- |
| C#Cc1cc(=O)n(-c2ccccc2)c2nc(Nc3ccc(N(C)C(=O)CCOC)cc3OC)ncc12 [Example 36, N-(4-((5-Ethynyl-7-oxo-8-phenyl-7,8-dihydropyrido[2,3-d]pyrimidin-2-yl)amino)-3-methoxyphenyl)-3-methoxy-N-methylpropanamide] | 1000 to 3000 nM | 1000 to 3000 nM | > 3000 nM | 1000 to 10000 nM |
| C#Cc1cc(=O)n(C)c2nc(Nc3cc(-c4cnn(C)c4)c(N4CCOCC4)cc3OC)ncc12 [Example 44, 5-Ethynyl-2-{[2-methoxy-5-(1-methylpyrazol-4-yl)-4-(morpholin-4-yl)phenyl]amino}-8-methylpyrido[2,3-d]pyrimidin-7-one] | 500 to 1000 nM | 1000 to 3000 nM | > 3000 nM | < 1000 nM |
| C#Cc1cc(=O)n(C)c2nc(Nc3ccc(N4CCN(C)CC4)cc3)ncc12 [Example 45, 5-Ethynyl-8-methyl-2-{[4-(4-methylpiperazin-1-yl)phenyl]amino}pyrido[2,3-d]pyrimidin-7-one] | < 500 nM | < 500 nM | > 3000 nM | < 1000 nM |
| C#Cc1cc(=O)n(C)c2nc(Nc3ccc(OCCN(C)C)cc3)ncc12 [Example 46, 2-({4-[2-(Dimethylamino)ethoxy]phenyl}amino)-5-ethynyl-8-methylpyrido[2,3-d]pyrimidin-7-one] | < 500 nM | < 500 nM | > 3000 nM | 1000 to 10000 nM |
| C#Cc1cc(=O)n(C)c2nc(Nc3ccc(N(C)CCN(C)C)c(-c4cnn(C)c4)c3)ncc12 [Example 47, 2-[(4-{[2-(Dimethylamino)ethyl](methyl)amino}-3-(1-methylpyrazol-4-yl)phenyl)amino]-5-ethynyl-8-methylpyrido[2,3-d]pyrimidin-7-one] | < 500 nM | 500 to 1000 nM | > 3000 nM | < 1000 nM |
| C#Cc1cc(=O)n(C)c2nc(Nc3ccc(N4CCN(C)CC4)cc3OC)ncc12 [Example 49, 5-Ethynyl-2-{[2-methoxy-4-(4-methylpiperazin-1-yl)phenyl]amino}-8-methylpyrido[2,3-d]pyrimidin-7-one] | < 500 nM | 500 to 1000 nM | > 3000 nM | < 1000 nM |
| C#Cc1cc(=O)n(C)c2nc(Nc3ccc(N4CCN(C)CC4)c(NC(C)=O)c3)ncc12 [Example 50, N-[5-({5-Ethynyl-8-methyl-7-oxopyrido[2,3-d]pyrimidin-2-yl}amino)-2-(4-methylpiperazin-1-yl)phenyl]acetamide] | < 500 nM | 500 to 1000 nM | > 3000 nM | < 1000 nM |
| C#Cc1cc(=O)n(C)c2nc(Nc3ccc(N4CCN(C)CC4)c(NC(=O)CC)c3)ncc12 [Example 51, N-[5-({5-Ethynyl-8-methyl-7-oxopyrido[2,3-d]pyrimidin-2-yl}amino)-2-(4-methylpiperazin-1-yl)phenyl]propanamide] | < 500 nM | < 500 nM | 1000 to 3000 nM | < 1000 nM |
| C#Cc1cc(=O)n(C)c2nc(Nc3cccc(N(C)CCN(C)C)c3)ncc12 [Example 52, 2-[(3-{[2-(Dimethylamino)ethyl](methyl)amino}phenyl)amino]-5-ethynyl-8-methylpyrido[2,3-d]pyrimidin-7-one] | < 500 nM | < 500 nM | > 3000 nM | < 1000 nM |
| C#Cc1cc(=O)n(C)c2nc(Nc3cccc(N(C)C(=O)CN(C)C)c3)ncc12 [Example 53, 2-(Dimethylamino)-N-[3-({5-ethynyl-8-methyl-7-oxopyrido[2,3-d]pyrimidin-2-yl}amino)phenyl]-N-methylacetamide] | > 3000 nM | > 3000 nM | > 3000 nM | 1000 to 10000 nM |
| C#Cc1cc(=O)n(-c2cccc([N+](=O)[O-])c2)c2nc(Nc3ccccc3OC)ncc12 [Example 54, 5-Ethynyl-2-((2-methoxyphenyl)amino)-8-(3-nitrophenyl)pyrido[2,3-d]pyrimidin-7(8H)-one] | > 3000 nM | > 3000 nM | > 3000 nM | > 10000 nM |

More lines, now with the values ahead:

| IC50 [1] | IC50 [2] | IC50 [3] | IC50 [4] | Compound |
| --- | --- | --- | --- | --- |
| < 500 nM | 500 to 1000 nM | > 3000 nM | < 1000 nM | C#Cc1cc(=O)n(-c2ccccc2)c2nc(Nc3ccc(N4CCN(C)CC4)c(CO)c3)ncc12 [Example 31, 5-Ethynyl-2-{[3-(hydroxymethyl)-4-(4-methylpiperazin-1-yl)phenyl]amino}-8-phenylpyrido[2,3-d]pyrimidin-7-one] |
| < 500 nM | < 500 nM | > 3000 nM | < 1000 nM | C#Cc1cc(=O)n(-c2ccccc2)c2nc(Nc3ccc(N(C)CCN(C)C)c(C)c3)ncc12 [Example 32, 2-[(4-{[2-(Dimethylamino)ethyl](methyl)amino}-3-methylphenyl)amino]-5-ethynyl-8-phenylpyrido[2,3-d]pyrimidin-7-one] |
| < 500 nM | < 500 nM | 1000 to 3000 nM | < 1000 nM | C#Cc1cc(=O)n(-c2ccccc2)c2nc(Nc3ccc(N4CCC(N(C)C)CC4)cc3)ncc12 [Example 33, 2-({4-[4-(Dimethylamino)piperidin-1-yl]phenyl}amino)-5-ethynyl-8-phenylpyrido[2,3-d]pyrimidin-7-one] |
| < 500 nM | > 3000 nM | > 3000 nM | < 1000 nM | C#Cc1cc(=O)n(-c2ccccc2)c2nc(Nc3ccc(N(C)CCN(C)C)cc3)ncc12 [Example 34, 2-((4-((2-(Dimethylamino)ethyl)(methyl)amino)phenyl)amino)-5-ethynyl-8-phenylpyrido[2,3-d]pyrimidin-7(8H)-one] |
| < 500 nM | 1000 to 3000 nM | 1000 to 3000 nM | < 1000 nM | C#Cc1cc(=O)n(-c2ccccc2)c2nc(Nc3ccc(N4CCN(C)CC4)cc3)ncc12 [Example 37, 5-Ethynyl-2-((4-(4-methylpiperazin-1-yl)phenyl)amino)-8-phenylpyrido[2,3-d]pyrimidin-7(8H)-one] |
| < 500 nM | < 500 nM | > 3000 nM | < 1000 nM | C#Cc1cc(=O)n(-c2ccccc2)c2nc(Nc3ccc(N4CCNC5(CC5)C4)cc3)ncc12 [Example 38, 2-[(4-{4,7-Diazaspiro[2.5]octan-7-yl}phenyl)amino]-5-ethynyl-8-phenylpyrido[2,3-d]pyrimidin-7-one] |
| < 500 nM | < 500 nM | 1000 to 3000 nM | < 1000 nM | C#Cc1cc(=O)n(-c2ccccc2)c2nc(Nc3ccc(N4CCC(N5CC(COC)C5)CC4)cc3)ncc12 [Example 39, 5-Ethynyl-2-[(4-{4-[3-(methoxymethyl)azetidin-1-yl]piperidin-1-yl}phenyl)amino]-8-phenylpyrido[2,3-d]pyrimidin-7-one] |
| < 500 nM | < 500 nM | 1000 to 3000 nM | < 1000 nM | C#Cc1cc(=O)n(-c2ccccc2)c2nc(Nc3ccc(N4CCC(N5CC(C(C)(C)O)C5)CC4)cc3)ncc12 [Example 40, 5-Ethynyl-2-[(4-{4-[3-(2-hydroxypropan-2-yl)azetidin-1-yl]piperidin-1-yl}phenyl)amino]-8-phenylpyrido[2,3-d]pyrimidin-7-one] |
| < 500 nM | < 500 nM | > 3000 nM | 1000 to 10000 nM | C#Cc1cc(=O)n(C)c2nc(Nc3ccc(N(C)CCN(C)C)cc3)ncc12 [Example 43, 2-[(4-{[2-(Dimethylamino)ethyl](methyl)amino}phenyl)amino]-5-ethynyl-8-methylpyrido[2,3-d]pyrimidin-7-one] |
